≈ marks a conversion by molar mass, not a printed value. Read-outs that look alike come from different tables or passages of the source.
Experiments:
[1] = Stability in whole blood; format: in vitro ADME
Procedure: The whole blood samples were placed in a 37° C. water bath, while plasma samples were stored at −20° C. At a predetermined time, an aliquot (100 μl) of spiked whole blood or plasma was extracted by adding 400 μl of acetone to induce precipitation of proteins, as described above.

[2] = Stability in simulated gastric fluid; format: in vitro ADME; conditions: 100 μM, 37° C., 8 hours, listed as d4T-5′-[p-bromophenyl methoxyalaninyl phosphate]
Procedure: The spiked fluids were then placed in a 37° C. water bath. At a predetermined time, 100 μI aliquots of the spiked gastric or intestinal fluid were extracted by adding 400 μl of acetone as discussed above.

[3] = Pharmacokinetic studies in mice, intravenous administration; format: in vivo, Balb/c mice; conditions: for AUC: read-out: AUC (converted); for Vd: read-out: Vss
[4] = Solubility; format: physicochemical; conditions: read-out: Solubility
[5] = system: enterovirus strain, ECHO 30, strain Bastianni; test: Enterovirus plaque formation assay in SF cells; format: cell-based
From the text: Virus stocks. The HIV-1 strain used in this study was HTLV-IIIB (Uckun et al., 1998 Antimicro. Agents and Chemother., 42:383-388). The non-HIV viruses included in the present study were the gancyclovir-sensitive cytomegalovirus (CMV) strain AD169 (ATCC VR-538); acyclovir-sensitive herpes simplex virus (HSV) Type I strain HF (ATCC VR-260); acyclovir-sensitive HSV Type II strain G (ATCC VR-734); adenovirus strain Type 5, strain adenoid 75 (ATCC VR-5); enterovirus strain, ECHO 30, strain Bastianni (ATCC VR-322); and respiratory syncytial virus (RSV), strain Long (ATCC VR-26).
Plaque formation assays. Plaque assays were used to examine the activity of the compounds against non-HIV viruses. The skin fibroblast cell line SF (ATCC CRL-2097) was used as a target for AD169, Adenovirus Type 5. […] cell line (ATCC CCL-81) was used as a target for HSV HF and G. The HEP-2 cell line (ATCC CCL-23) was used as a target for the RSV strain Long. These cell lines were cultured at 1×10^5 cells/well in 24-well (all but ECHO 30-infected SF) or 6-well (ECHO 30-infected SF) tissue culture plates with 0.9% methylcellulose or 0.4% SeaPlaque agarose semisolid support. […] Percent inhibition of plaque formation was calculated by comparing the plaque numbers from the test substance-treated infected cells with the plaque numbers from untreated infected cells (i.e., virus controls). The IC50 values were determined using the Statview statistics program (SAS Institute, Inc., Cary, N.C.).
Statistical analysis. […] An IC50 value was calculated from each set of triplicate wells using nonlinear regression modeling of the exponential form of the linearized equation (Statview, SAS Institute, Inc., Cary, N.C.). […]
The skin fibroblast cell line SF (ATCC CRL-2097) was used as a target for AD169, Adenovirus Type 5, and ECHO 30; the VERO cell line (ATCC CCL-81) was used as a target for HF and G; and the HEP-2 cell line (ATCC CCL-23) was used as target for the RSV strain Long. Results are expressed as the average IC50 values in μM. […]

[6] = rats, cited from earlier work
[7] = dogs; twice daily hard gelatin capsules 25 mg/kg -100 mg/kg; cumulative dose levels as high as 8.4 g/kg; cited from earlier work
[8] = cats; twice daily hard gelatin capsules 25 mg/kg -100 mg/kg; cumulative dose levels as high as 8.4 g/kg; cited from earlier work
[9] = Stability in plasma in the presence of selective esterase inhibitors; conditions: 250 μM
[10] = after i.v. compound 113, model fit, C.V. of modeling in parentheses
[11] = female, Balb/c, mouse, in vivo, iv, 100 mg/kg, plasma analyte = label, after i.v. 100 mg/kg compound 113, estimate from composite curve of pooled data
[12] = female, Balb/c, mouse, in vivo, iv, 100 mg/kg, plasma analyte = label, after i.v. 100 mg/kg compound 113, mean ± S.E.M

## COC(=O)C(C)NP(=O)(OC[C@@H]1C=C[C@H](n2cc(C)c(=O)[nH]c2=O)O1)Oc1ccc(Br)cc1 (stereo partly drawn) [Compound 113, 5′-[4-Bromophenyl methoxylaninylphosphate]-2′, 3′-didehydro-3′-deoxy thymidine]
[1]; 250 μM, 37° C.
  time to complete decomposition in whole blood: ≤ 30 min
[1]; 250 μM, 37° C., 5 minutes
  decomposed in whole blood: 68%
[1]; 250 μM, 37° C., 10 minutes
  decomposed in whole blood: 87%
[1]; 250 μM, 37° C., 15 minutes
  decomposed in whole blood: 92%
[1]; spiked whole blood 37° C., 250 μM compound 113, 100 μM Ala-d4T-MP (followed for 1 day)
  stability in whole blood (in words): very unstable
[2]
  stability in gastric fluid (in words): relatively stable
[3]; [10]
  CLm1 (metabolic clearance of compound 113 / formation clearance of Ala-d4T-MP): 83.9 mL/min/kg
  CLm2 (metabolic clearance of compound 113 / formation clearance of d4T): 87.4 mL/min/kg
[3]; [11]
  AUC: 19 µM·h
  Vd: 0.82 L/kg
[3]; [12]
  Cmax: 212 µM
  clearance: 174 mL/min/kg
  half-life: 3.6 min
  AUC: 17.9 µM·h
  Vd: 0.92 L/kg
[4]
  Solubility: 3000 µg/mL (≈ 5.51 mM)
[5]
  IC50: > 100 µM
[6]; intraperitoneally or orally for up to 8 consecutive weeks, cumulative dose levels as high as 6.4 g/kg
  toxicity on daily administration: not associated with any detectable toxicity
[6]; single intraperitoneal or oral bolus dose levels as high as 500 mg/kg
  acute or subacute toxicity: very well tolerated without any detectable acute or subacute toxicity
[7]
  tolerability of four-week treatment course: very well tolerated
[8]
  tolerability of four-week treatment course: very well tolerated
[9]; EDTA (1 mM), arylesterase, 5 min
  mean percent hydrolysis in plasma: 99%
[9]; EDTA (1 mM), arylesterase, 10 min
  mean percent hydrolysis in plasma: 100%
[9]; EDTA (1 mM), arylesterase, 15 min
  mean percent hydrolysis in plasma: 100%
[9]; EDTA (1 mM), arylesterase, 30 min
  mean percent hydrolysis in plasma: 100%
[9]; EDTA (1 mM), arylesterase, 60 min
  mean percent hydrolysis in plasma: 100%
[9]; EDTA (1 mM), arylesterase, 120 min
  mean percent hydrolysis in plasma: 100%
[9]; No inhibitor, 5 min
  mean percent hydrolysis in plasma: 95%
[9]; No inhibitor, 10 min
  mean percent hydrolysis in plasma: 98%
[9]; No inhibitor, 15 min
  mean percent hydrolysis in plasma: 99%
[9]; No inhibitor, 30 min
  mean percent hydrolysis in plasma: 100%
[9]; No inhibitor, 60 min
  mean percent hydrolysis in plasma: 100%
[9]; No inhibitor, 120 min
  mean percent hydrolysis in plasma: 100%
[9]; Paraoxon (0.1 mM), cholinesterase & carboxylesterase, 5 min
  mean percent hydrolysis in plasma: 0%
[9]; Paraoxon (0.1 mM), cholinesterase & carboxylesterase, 10 min
  mean percent hydrolysis in plasma: 2%
[9]; Paraoxon (0.1 mM), cholinesterase & carboxylesterase, 15 min
  mean percent hydrolysis in plasma: 2%
[9]; Paraoxon (0.1 mM), cholinesterase & carboxylesterase, 30 min
  mean percent hydrolysis in plasma: 2%
[9]; Paraoxon (0.1 mM), cholinesterase & carboxylesterase, 60 min
  mean percent hydrolysis in plasma: 3%
[9]; Paraoxon (0.1 mM), cholinesterase & carboxylesterase, 120 min
  mean percent hydrolysis in plasma: 24%
[9]; Physostigmine (0.1 mM), cholinesterase, 5 min
  mean percent hydrolysis in plasma: 43%
[9]; Physostigmine (0.1 mM), cholinesterase, 10 min
  mean percent hydrolysis in plasma: 65%
[9]; Physostigmine (0.1 mM), cholinesterase, 15 min
  mean percent hydrolysis in plasma: 76%
[9]; Physostigmine (0.1 mM), cholinesterase, 30 min
  mean percent hydrolysis in plasma: 89%
[9]; Physostigmine (0.1 mM), cholinesterase, 60 min
  mean percent hydrolysis in plasma: 100%
[9]; Physostigmine (0.1 mM), cholinesterase, 120 min
  mean percent hydrolysis in plasma: 100%
